#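 Following 48 hours of exposure in 96-well plates, responses at five concentrations were used to interpolate endpoints linearly. Abbreviation: GI50, concentration required for 50% inhibition of growth.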 Active and inactive are the calls of the source. Cut-off read from the data, not from the text of the source: active = GI50 up to about 1.1 µM and inactive = higher. Where a SMILES comes first, the peptide text is derived from it. The star is where a group is joined. ONb = O=[N+]([O-])c1ccc(CO*)cc1; Boc = CC(C)(C)OC(=O)*
# Columns and labels:
# Assay in all cases: growth of human tumour cells (NCI), 48 h
# 786-0 = test system: 786-0
# A498 = test system: A498
# A549 = test system: A549
# CAKI-1 = test system: CAKI-1
# HCT-15 = test system: HCT-15
# HOP-92 = test system: HOP-92
# LOX IMVI = test system: LOX IMVI
# MCF7 = test system: MCF7
# MDA-MB-435 = test system: MDA-MB-435
# MDA-N = test system: MDA-N
# NCI-H226 = test system: NCI-H226
# NCI-H23 = test system: NCI-H23
# NCI-H460 = test system: NCI-H460
# OVCAR-5 = test system: OVCAR-5
# SF-268 = test system: SF-268
# SF-539 = test system: SF-539
# SK-MEL-5 = test system: SK-MEL-5
# SNB-19 = test system: SNB-19
# TK-10 = test system: TK-10
# BT-549 = test system: BT-549
SMILES,GI50 (786-0),GI50 (A498),GI50 (A549),GI50 (CAKI-1),GI50 (HCT-15),GI50 (HOP-92),GI50 (LOX IMVI),GI50 (MCF7),GI50 (MDA-MB-435),GI50 (MDA-N),GI50 (NCI-H226),GI50 (NCI-H23),GI50 (NCI-H460),GI50 (OVCAR-5),GI50 (SF-268),GI50 (SF-539),GI50 (SK-MEL-5),GI50 (SNB-19),GI50 (TK-10),GI50 (BT-549)
COC(=O)c1ccccc1CC(Cc1ccc2c(c1)CCC2)C(=O)OC (stereo not given),> 100 µM (inactive),> 100 µM (inactive),> 100 µM (inactive),> 100 µM (inactive),> 100 µM,> 100 µM (inactive),> 100 µM (inactive),> 100 µM (inactive),66.1 µM (inactive),62.4 µM (inactive),57.5 µM (inactive),> 100 µM (inactive),> 100 µM (inactive),> 100 µM (inactive),> 100 µM (inactive),> 100 µM (inactive),32.4 µM (inactive),> 100 µM (inactive),> 100 µM (inactive),–
O=S(=O)(c1ccccc1)n1c(C(O)c2ccccc2)cc2ccccc21 (stereo not given),14.1 µM (inactive),10.2 µM (inactive),14.5 µM (inactive),17.7 µM (inactive),21.3 µM,12.7 µM (inactive),30.1 µM (inactive),21.2 µM (inactive),16.6 µM (inactive),–,13.1 µM (inactive),18.9 µM (inactive),25.3 µM (inactive),15.7 µM (inactive),16.3 µM (inactive),16.7 µM (inactive),14.6 µM (inactive),13.7 µM (inactive),17.3 µM (inactive),15.8 µM (inactive)
CCCCCCc1cc2cc(-c3cn4ccsc4n3)c(=O)oc2cc1O,> 56.9 µM (inactive),> 100 µM (inactive),> 100 µM (inactive),> 71.1 µM (inactive),> 90.4 µM,> 100 µM (inactive),> 100 µM (inactive),99.5 µM (inactive),–,–,> 100 µM (inactive),> 82 µM (inactive),> 100 µM (inactive),> 100 µM (inactive),> 58.2 µM (inactive),64.3 µM (inactive),> 30.9 µM (inactive),> 100 µM (inactive),> 95.3 µM (inactive),> 100 µM (inactive)
COc1cc2nc(-c3cccs3)nc(Nc3cccc(Cl)c3)c2cc1OC,53.2 µM (inactive),> 100 µM (inactive),50.9 µM (inactive),> 100 µM (inactive),88.9 µM,55 µM (inactive),42.6 µM (inactive),53.6 µM (inactive),61.9 µM (inactive),–,50.6 µM (inactive),54.6 µM (inactive),42.8 µM (inactive),> 100 µM (inactive),31.3 µM (inactive),37.2 µM (inactive),> 100 µM (inactive),35.2 µM (inactive),2.3 µM (inactive),59.2 µM (inactive)
O=[N+]([O-])c1ccc2nc(Nc3ccccc3)c(Nc3ccccc3)nc2c1,1.49 µM (inactive),0.929 µM (active),0.349 µM (active),0.802 µM (active),0.753 µM,1.63 µM (inactive),1.58 µM (inactive),–,1.66 µM (inactive),0.553 µM (active),2.4 µM (inactive),1.17 µM (inactive),0.42 µM (active),2.64 µM (inactive),1.62 µM (inactive),1.58 µM (inactive),1.49 µM (inactive),1.15 µM (inactive),2.83 µM (inactive),–
CC(C)CC(NC(=O)OC(C)(C)C)C(=O)NC(CCC(=O)OCc1ccc([N+](=O)[O-])cc1)C(=O)OCc1ccc([N+](=O)[O-])cc1 (stereo not drawn) (Boc-Leu-Glu(ONb)-ONb; configuration not given here),26.1 µM (inactive),40.2 µM (inactive),–,> 100 µM (inactive),> 100 µM,56.4 µM (inactive),25.2 µM (inactive),> 10 µM (inactive),> 10 µM (inactive),44.8 µM (inactive),–,20 µM (inactive),22 µM (inactive),> 100 µM (inactive),18.4 µM (inactive),18.7 µM (inactive),–,> 100 µM (inactive),28.6 µM (inactive),–
CC(C)CCC(=O)c1ccoc1 [PERILLAKETONE],> 100 µM (inactive),–,> 100 µM (inactive),> 100 µM (inactive),> 100 µM,> 100 µM (inactive),> 100 µM (inactive),> 100 µM (inactive),> 100 µM (inactive),> 100 µM (inactive),> 100 µM (inactive),> 100 µM (inactive),> 100 µM (inactive),> 100 µM (inactive),> 100 µM (inactive),> 100 µM (inactive),> 100 µM (inactive),> 100 µM (inactive),> 100 µM (inactive),–
NCCS(=O)(=O)O [TAURINE],> 100 µM (inactive),–,> 100 µM (inactive),> 100 µM (inactive),> 100 µM,> 100 µM (inactive),> 100 µM (inactive),> 100 µM (inactive),> 100 µM (inactive),> 100 µM (inactive),> 100 µM (inactive),> 100 µM (inactive),> 100 µM (inactive),> 100 µM (inactive),> 100 µM (inactive),> 100 µM (inactive),> 100 µM (inactive),> 100 µM (inactive),> 100 µM (inactive),–

# — ChEMBL document CHEMBL1201862, “PubChem BioAssay data set” (2004)
